Assay type in all cases: physicochemical
A short description of data set [1]: Particle size distribution (PSD) by laser diffraction, Malvern Mastersizer 3000. As to conditions: dispersed in ethyl acetate. As for the experimental part:
(§1) • Particle Size Distribution (PSD) by Laser Diffraction • Imaging by Scanning Electron Microscopy (SEM) • Specific Surface Area (SSA) determination by BET Sorptometry • Crystalline/amorphous phase determination by Powder X-ray Diffraction (PXRD) • Bulk density analysis by modified USP <616>Bulk Density of Powders Method I
Particle size analyses were conducted on a Malvern Mastersizer™ 3000 using the Hydro MV™ dispersion unit. A non-validated general PSD method/dispersant method was used to analyze the rucaparib samples. The sample preparation procedure performed was as follows: • Weigh 10 to 20 mg of rucaparib into a 30-mL vial, add 20 mL of ethyl acetate. Disperse the sample by vortexing then sonicating the suspension in an ultrasonic bath for 1 minute. Then transfer the sample suspension to the Malvern Hydro MV™ dispersion unit to obtain obscuration between 5 and 15%.
Particle size distributions can be viewed in Table 1.

Data set [2] can be described thus: Solubility testing, shake-flask method. Conditions: 24 hours at 20-25° C. How it is done:
The solubility was determined by using a shake-flask method. The drug was added in excess to each solution prepared in duplicate. The vials were placed on a mechanical shaker for 24 hours at 20-25° C. After shaking, solution was removed and filtered through a 0.45 μm PTFE syringe filter and analyzed by UV/Visible spectrophotometry.

Data set [3] can be described thus: Specific surface area (SSA) by BET sorptometry. As for the experimental part: As used herein, the “specific surface area” is the total surface area of the rucaparib particle per unit of rucaparib mass as measured by the Brunauer-Emmett-Teller (“BET”) isotherm (i.e.: the BET SSA). As will be understood by those of skill in the art, the SSA is determined on a per gram basis and takes into account both agglomerated and non-agglomerated rucaparib particles in the composition. The BET specific surface area test procedure is a compendial method included in both the United States Pharmaceopeia and the European Pharmaceopeia. The rucaparib particles have a specific surface area (SSA) of at least 12 m^2/g. In various further embodiments, the rucaparib particles have a SSA of at least 13 m^2/g, 14 m^2/g, 15 m^2/g, 16 m^2/g, 17 m^2/g, 18 m^2/g, 19 m^2/g, 20 m^2/g, 21 m^2/g, 22 m^2/g, 23 m^2/g, 24 m^2/g, 25 m^2/g, 26 m^2/g, 27 m^2/g, 28 m^2/g, 29 m^2/g, or 30 m^2/g.
as §1
Specific Surface Area Surface area analyses were conducted on a Quantachrome NOVAtouch™ LX2 BET Sorptometer. Surface area results can be found in Table 1.

The nature of data set [4]: Bulk density analysis by modified USP <616> Bulk Density of Powders Method I (bulk and tapped).
Excerpt: As used herein, the bulk density (not tapped) of a particle is the ratio of the mass to the volume (including the interparticulate void volume) of an untapped powder sample.
As used herein, the tapped density of a particle is obtained by mechanically tapping a graduated cylinder containing the sample until little further volume change is observed.
as §1

Consider `CNCc1ccc(-c2[nH]c3cc(F)cc4c3c2CCNC4=O)cc1` [Rucaparib, (8-fluoro-2-{4-[(methylamino)methyl]phenyl}-1,3,4,5-tetrahydro-6H-azepino[5,4,3-cd]indol-6-one ((1S,4R)-7,7-dimethyl-2-oxobicyclo[2.2.1]hept-1-yl)], for which the “PSD - Masterisizer Dv-10” value in data set [1] was found to be 2.96 μ. Besides, in data set [1], the “PSD - Masterisizer Dv-50” value turned out to be 13.6 μ. For the same compound, the “PSD - Masterisizer Dv-90” value in data set [1] amounted to 26.8 μ. The “Concentration of Rucaparib Found” value in data set [2] (25% ethanol) was 115 µg/mL; in data set [2] (25% methanol), 68.8 µg/mL; in data set [2] (40% ethanol), 394 µg/mL; in data set [2] (40% methanol) it was 739 µg/mL. Moreover, in data set [3] (BET), the “Surface Area” value amounted to 6.59 m^2/gm. In data set [3] (material used in dissolution testing), the “specific surface area measurement” value was 6.59 m2/g. Also, the “Bulk Density” value in data set [4] (not tapped) is listed as 0.332 gm/cm^3. Moreover, the “Tapped Density” value in data set [4] (tapped) was found to be 0.427 gm/cm^3.

(Values after patent US11738029B2, “Rucaparib particles and uses thereof” (CRITITECH, INC., priority 2021, dated 2023).)
